Where a name gives a salt, the structure may show the parent alone.

Results on twelve compounds are retold here after US8524898B2, “Proton acceptor iminium/carbocation-type coupling agents” (Luxembourg Bio Technologies Ltd., priority 2007, dated 2013).

Experiment in the first data set: not given
Conditions: not given
On to `CN(C)C(n1n[n+]([O-])c2ccc(Cl)cc21)=[N+]1CCCC1` (as salt: phosphate), for which the melting point was 192 to 193 °C. Same read-out and setting: with `O=c1ccccn1OC(N1CCOCC1)=[N+]1CCCC1` (as salt: phosphate) the figure was 145 to 146 °C (dec.). Consider `CN(C)C(O/N=C(\C#N)c1ccccn1)=[N+](C)C` (as salt: phosphate), for which the melting point fell in the range of 169 to 171 °C. Same read-out and setting: to `C[N+](C)=C(ON=C(C#N)C#N)N1CCOCC1` (as salt: phosphate) [HDMODC, 1-[(1-(dicyanomethyleneaminooxy)-dimethylamino-morpholinomethylene)]methanaminium hexafluorophosphate] belongs 118 to 119 °C; to `CCOC(=O)C(C#N)=NOC(N(C)C)=[N+]1CCCC1` (as salt: phosphate) [HDmPyOCC, 1-[(1-(Cyano-2-ethoxy-2-oxoethylideneaminooxy)-dimethylamino-pyrrolodinomethylene)]methanaminium hexafluorophosphate], 126 to 127 °C (dec.). Regarding `CN(C)C(ON=C(C#N)C#N)=[N+]1CCCC1` (as salt: phosphate) [HDmPyODC, 1-[(1-(dicyanomethylideneaminooxy)-dimethylamino-pyrrolodinomethylene)]methanaminium hexafluorophosphate], the melting point is 146 to 147 °C (dec.). As for `[O-][n+]1nn(C(N2CCCC2)N2CCOCC2)c2cccnc21` (centres unmarked) (as salt: phosphate) [HMPyA, 1-(morpholino(pyrrolidinium-1-ylidene)methyl)-1H-[1,2,3]triazolo[4,5-I]pyridine 3-oxide hexafluorophosphate], the melting point is 206 to 208 °C (dec.).

`CCOC(=O)/C(C#N)=N/OC(N1CCOCC1)=[N+]1CCCC1` (as salt: phosphate) [HMPyOCC, 1-((1-cyano-2-ethoxy-2-oxoethylideneaminooxy)(morpholino)methylene) pyrrolidinium hexafluorophosphate] registered a melting point of 171 to 172 °C.

Take `CCOC(=O)/C(C#N)=N/OC(N(C)C)N(C)C` (as salt: phosphate) [HTOCC, O-[Cyano(ethoxycarbonyl)methylidene)amino]-1,1,3,3-tetramethyluronium Hexafluorophosphate]: the melting point was 135 to 137 °C (dec.).

A short description of the next data set: Maximal solubility of coupling agents in DMF. The settings on record: calculated molarity in DMF.
“1-((dimethylimino)(morpholino)methyl)3-H-6-chlorobenzo[1,2,3]triazolo-1-ium-3-olate hexafluorophosphate [6-Cl-HDMB]”: the Molarity is 1.0. “1-((dimethylimino)(morpholino)methyl)3-H-6-trifluoromethylbenzo[1,2,3]-triazolo-1-ium-3-olate hexafluorophosphate [6-CF3HDMB]”: the Molarity was 1.02.

Still in this data set, the particulars now being: maximal solubility; mass of agent per volume of DMF.
Compound “1-((dimethylimino)(morpholino)methyl)3-H-6-chlorobenzo[1,2,3]triazolo-1-ium-3-olate hexafluorophosphate [6-Cl-HDMB]” yielded a Wt/ml of 0.456. Same read-out and setting: to “1-((dimethylimino)(morpholino)methyl)3-H-6-trifluoromethylbenzo[1,2,3]-triazolo-1-ium-3-olate hexafluorophosphate [6-CF3HDMB]” belongs 0.475. Still for that read-out and setting: to “1-((dimethylimino)(morpholino)methyl)3-H-[1,2,3]triazolo[4,5-b]pyridine-1-3-olate hexafluorophosphate [HDMA]” belongs 0.285.
